{"source": "the C3SDB collision cross section collection", "key": {"[1]": {"conditions": "instrument: DT, single field, calibrated with ESI Low Concentration Tuning Mix (Agilent)"}, "[2]": {"conditions": "instrument: TW, calibrated with polyalanine and drug standards"}}, "data": [{"smiles": "NC1(C(=O)[O-])CC1", "note": "[1-AMINOCYCLOPROPANECARBOXYLATE]", "values": [{"measurement": "collision cross section (N2)", "setting": "[1]; [M-H]-", "value": 135.1, "unit": "Å²"}]}, {"smiles": "Cn1cnc(C[C@H](N)C(=O)O)c1", "note": "[1-METHYL-L-HISTIDINE]", "values": [{"measurement": "collision cross section (N2)", "setting": "[1]; [M+H]+", "value": 133.4, "unit": "Å²"}, {"measurement": "collision cross section (N2)", "setting": "[1]; [M+Na]+", "value": 138.4, "unit": "Å²"}]}, {"smiles": "NCC(N)C(=O)O", "note": "(centres undefined) [2,3-DIAMINOPROPIONATE]", "values": [{"measurement": "collision cross section (N2)", "setting": "[1]; [M+H]+", "value": 138.1, "unit": "Å²"}, {"measurement": "collision cross section (N2)", "setting": "[1]; [M-H]-", "value": 118.2, "unit": "Å²"}]}, {"smiles": "O=C(O)c1cccc(O)c1[O-]", "note": "[2,3-DIHYDROXYBENZOATE]", "values": [{"measurement": "collision cross section (N2)", "setting": "[1]; [M-H]-", "value": 120.6, "unit": "Å²"}]}, {"smiles": "O=c1[nH]c(=O)c2nccnc2[nH]1", "note": "[2,4-DIHYDROXYPTERIDINE]", "values": [{"measurement": "collision cross section (N2)", "setting": "[1]; [M+H]+", "value": 132.4, "unit": "Å²"}, {"measurement": "collision cross section (N2)", "setting": "[1]; [M+Na]+", "value": 143.8, "unit": "Å²"}, {"measurement": "collision cross section (N2)", "setting": "[1]; [M-H]-", "value": 125.3, "unit": "Å²"}]}, {"smiles": "O=C(O)c1cc(O)ccc1[O-]", "note": "[2,5-DIHYDROXYBENZOATE]", "values": [{"measurement": "collision cross section (N2)", "setting": "[1]; [M-H]-", "value": 124.6, "unit": "Å²"}]}, {"smiles": "O=C(O)Cc1ccccc1O", "note": "[2-HYDROXYPHENYLACETATE]", "values": [{"measurement": "collision cross section (N2)", "setting": "[1]; [M-H]-", "value": 130.1, "unit": "Å²"}]}, {"smiles": "O=C(O)c1ccc2ccccc2n1", "note": "[2-QUINOLINECARBOXYLATE]", "values": [{"measurement": "collision cross section (N2)", "setting": "[1]; [M+H]+", "value": 132, "unit": "Å²"}]}, {"smiles": "O=C(O)Cc1ccc(O)c(O)c1", "note": "[3,4-DIHYDROXYPHENYLACETATE]", "values": [{"measurement": "collision cross section (N2)", "setting": "[1]; [M+Na-2H]-", "value": 139.9, "unit": "Å²"}]}, {"smiles": "OCC(O)c1ccc(O)c(O)c1", "note": "(centres undefined) [3,4-DIHYDROXYPHENYLGLYCOL]", "values": [{"measurement": "collision cross section (N2)", "setting": "[1]; [M-H2O-H]-", "value": 127.5, "unit": "Å²"}]}, {"smiles": "N[C@@H](Cc1cc(I)c(O)c(I)c1)C(=O)O", "note": "[3,5-DIIODO-L-TYROSINE]", "values": [{"measurement": "collision cross section (N2)", "setting": "[1]; [M+H]+", "value": 171.1, "unit": "Å²"}, {"measurement": "collision cross section (N2)", "setting": "[1]; [M+Na]+", "value": 165.2, "unit": "Å²"}, {"measurement": "collision cross section (N2)", "setting": "[1]; [M-H]-", "value": 159.3, "unit": "Å²"}]}, {"smiles": "Nc1cc(C(=O)O)ccc1[O-]", "note": "[3-AMINO-4-HYDROXYBENZOATE]", "values": [{"measurement": "collision cross section (N2)", "setting": "[1]; [M+H]+", "value": 139.6, "unit": "Å²"}, {"measurement": "collision cross section (N2)", "setting": "[1]; [M-H]-", "value": 125.7, "unit": "Å²"}]}, {"smiles": "CC(C)(COP(=O)(O)OP(=O)(O)OC[C@H]1O[C@@H](n2cnc3c(N)ncnc32)[C@H](O)[C@@H]1OP(=O)(O)O)[C@@H](O)C(=O)NCCC(=O)NCCSC(=O)C[C@@](C)(O)CC(=O)O", "note": "[3-HYDROXY-3-METHYLGLUTARYL-COA]", "values": [{"measurement": "collision cross section (N2)", "setting": "[1]; [M+H]+", "value": 265.4, "unit": "Å²"}, {"measurement": "collision cross section (N2)", "setting": "[1]; [M+Na-2H]-", "value": 267.3, "unit": "Å²"}, {"measurement": "collision cross section (N2)", "setting": "[1]; [M+Na]+", "value": 266.2, "unit": "Å²"}, {"measurement": "collision cross section (N2)", "setting": "[1]; [M-H]-", "value": 261.9, "unit": "Å²"}]}, {"smiles": "Nc1c(O)cccc1C(=O)O", "note": "[3-HYDROXYANTHRANILATE]", "values": [{"measurement": "collision cross section (N2)", "setting": "[1]; [M+H]+", "value": 131.2, "unit": "Å²"}, {"measurement": "collision cross section (N2)", "setting": "[1]; [M-H]-", "value": 127.8, "unit": "Å²"}]}, {"smiles": "COc1cc(CCN)ccc1O", "note": "[3-METHOXYTYRAMINE]", "values": [{"measurement": "collision cross section (N2)", "setting": "[1]; [M+H]+", "value": 146.7, "unit": "Å²"}]}, {"smiles": "CC(C)=CC(=O)SCCNC(=O)CCNC(=O)C(O)C(C)(C)COP(=O)(O)OP(=O)(O)OC[C@H]1O[C@@H](n2cnc3c(N)ncnc32)[C@H](O)[C@@H]1OP(=O)(O)O", "note": "(some centres undefined) [3-METHYLCROTONYL-COA]", "values": [{"measurement": "collision cross section (N2)", "setting": "[1]; [M+H]+", "value": 256.1, "unit": "Å²"}, {"measurement": "collision cross section (N2)", "setting": "[1]; [M+Na-2H]-", "value": 266.9, "unit": "Å²"}, {"measurement": "collision cross section (N2)", "setting": "[1]; [M-H]-", "value": 256.7, "unit": "Å²"}]}, {"smiles": "N[C@@H](Cc1ccc(O)c([N+](=O)[O-])c1)C(=O)O", "note": "[3-NITRO-L-TYROSINE]", "values": [{"measurement": "collision cross section (N2)", "setting": "[1]; [M+H]+", "value": 158.2, "unit": "Å²"}, {"measurement": "collision cross section (N2)", "setting": "[1]; [M+Na-2H]-", "value": 147.7, "unit": "Å²"}, {"measurement": "collision cross section (N2)", "setting": "[1]; [M+Na]+", "value": 154.5, "unit": "Å²"}, {"measurement": "collision cross section (N2)", "setting": "[1]; [M-H]-", "value": 148.9, "unit": "Å²"}]}, {"smiles": "COc1cc([C@@H]2c3cc4c(cc3[C@@H](O[C@@H]3O[C@@H]5CO[C@@H](c6cccs6)O[C@H]5[C@H](O)[C@H]3O)[C@H]3COC(=O)[C@H]23)OCO4)cc(OC)c1O", "note": "[TENIPOSIDE]", "values": [{"measurement": "collision cross section (N2)", "setting": "[2]; [M+Na]+", "value": 266.1, "unit": "Å²"}]}, {"smiles": "CC(C)=CCCC1(C)C=Cc2c(O)c3c(c(CC=C(C)C)c2O1)OC12C(CC4CC1C(C)(C)OC2(C/C=C(/C)C(=O)O)C4O)C3=O", "note": "(centres undefined) [TETRAHYDROGAMBOGIC ACID]", "values": [{"measurement": "collision cross section (N2)", "setting": "[2]; [M+H]+", "value": 246.4, "unit": "Å²"}]}, {"smiles": "c1ccc2[nH]c(-c3cscn3)nc2c1", "note": "[THIABENDAZOLE]", "values": [{"measurement": "collision cross section (N2)", "setting": "[2]; [M+H]+", "value": 137.7, "unit": "Å²"}]}, {"smiles": "Cc1ncc(C[n+]2csc(CCO)c2C)c(N)n1", "note": "[THIAMINE]", "values": [{"measurement": "collision cross section (N2)", "setting": "[2]; [M+H]+", "value": 155.9, "unit": "Å²"}]}, {"smiles": "CS(=O)(=O)c1ccc([C@@H](O)[C@@H](CO)NC(=O)C(Cl)Cl)cc1", "note": "[THIAMPHENICOL]", "values": [{"measurement": "collision cross section (N2)", "setting": "[2]; [M+H]+", "value": 170.7, "unit": "Å²"}]}, {"smiles": "CN(C)C(=S)SSC(=S)N(C)C", "note": "[THIRAM]", "values": [{"measurement": "collision cross section (N2)", "setting": "[2]; [M+H]+", "value": 148.4, "unit": "Å²"}]}, {"smiles": "CC[C@H]1OC(=O)C[C@@H](O)[C@H](C)[C@@H](O[C@@H]2O[C@H](C)[C@@H](O)[C@H](N(C)C)[C@H]2O)[C@@H](CCN2C[C@H](C)C[C@H](C)C2)C[C@@H](C)C(=O)/C=C/C(C)=C/[C@@H]1CO[C@@H]1O[C@H](C)[C@@H](O)[C@@H](OC)[C@H]1OC", "note": "[TILMICOSIN]", "values": [{"measurement": "collision cross section (N2)", "setting": "[2]; [M+H]+", "value": 310.2, "unit": "Å²"}]}, {"smiles": "Cc1c(Cl)cccc1Nc1ccccc1C(=O)O", "note": "[TOLFENAMIC ACID]", "values": [{"measurement": "collision cross section (N2)", "setting": "[2]; [M+H]+", "value": 155.6, "unit": "Å²"}]}, {"smiles": "Cc1cccc(N(C)C(=S)Oc2ccc3ccccc3c2)c1", "note": "[TOLNAFTATE]", "values": [{"measurement": "collision cross section (N2)", "setting": "[2]; [M+H]+", "value": 173.6, "unit": "Å²"}]}, {"smiles": "CC1(C)O[C@@H]2[C@@H](CO[C@@]3(COS(N)(=O)=O)OC(C)(C)O[C@@H]23)O1", "note": "[TOPIRAMATE]", "values": [{"measurement": "collision cross section (N2)", "setting": "[2]; [M+Na]+", "value": 170.1, "unit": "Å²"}]}, {"smiles": "C[C@]12C=CC(=O)C=C1CC[C@H]1[C@@H]3C[C@@H](O)[C@](O)(C(=O)CO)[C@@]3(C)C[C@H](O)[C@@]12F", "note": "[TRIAMCINOLONE]", "values": [{"measurement": "collision cross section (N2)", "setting": "[2]; [M+H]+", "value": 186.8, "unit": "Å²"}]}, {"smiles": "COc1cc(C(=O)N2CCOCC2)cc(OC)c1OC", "note": "[TRIMETOZINE]", "values": [{"measurement": "collision cross section (N2)", "setting": "[2]; [M+H]+", "value": 164.5, "unit": "Å²"}]}, {"smiles": "CCN(Cc1ccncc1)C(=O)C(CO)c1ccccc1", "note": "(centres undefined) [TROPICAMIDE]", "values": [{"measurement": "collision cross section (N2)", "setting": "[2]; [M+H]+", "value": 169.5, "unit": "Å²"}]}, {"smiles": "CC[C@H]1OC(=O)C[C@@H](O)[C@H](C)[C@@H](O[C@@H]2O[C@H](C)[C@@H](O[C@H]3C[C@@](C)(O)[C@@H](O)[C@H](C)O3)[C@H](N(C)C)[C@H]2O)[C@@H](CC=O)C[C@@H](C)C(=O)/C=C/C(C)=C/[C@@H]1CO[C@@H]1O[C@H](C)[C@@H](O)[C@@H](OC)[C@H]1OC", "note": "[TYLOSIN]", "values": [{"measurement": "collision cross section (N2)", "setting": "[2]; [M+H]+", "value": 307.8, "unit": "Å²"}]}, {"smiles": "COc1ccc(C(=O)CC(=O)O)c2c1C=CC(C)(C)O2", "note": "[URSINOIC ACID]", "values": [{"measurement": "collision cross section (N2)", "setting": "[2]; [M+H]+", "value": 159.4, "unit": "Å²"}]}, {"smiles": "COc1ccc(C(CN(C)C)C2(O)CCCCC2)cc1", "note": "(centres undefined) [VENLAFAXINE]", "values": [{"measurement": "collision cross section (N2)", "setting": "[2]; [M+H]+", "value": 169.9, "unit": "Å²"}]}, {"smiles": "CC(=O)CC(c1ccccc1)c1c(O)c2ccccc2oc1=O", "note": "(centres undefined) [WARFARIN]", "values": [{"measurement": "collision cross section (N2)", "setting": "[2]; [M+H]+", "value": 165.9, "unit": "Å²"}]}, {"smiles": "Nc1nc(=O)c2[nH]c(=O)cnc2[nH]1", "note": "[XANTHOPTERIN]", "values": [{"measurement": "collision cross section (N2)", "setting": "[2]; [M+H]+", "value": 131.1, "unit": "Å²"}]}, {"smiles": "O=C(O)c1cc(=O)c2cccc(O)c2[nH]1", "note": "[XANTHURENIC ACID]", "values": [{"measurement": "collision cross section (N2)", "setting": "[2]; [M+H]+", "value": 137.7, "unit": "Å²"}]}, {"smiles": "O=C(O)[C@@H]1[C@H]2C[C@H]3c4[nH]c5ccccc5c4CCN3C[C@@H]2CC[C@@H]1O", "note": "[YOHIMBIC ACID]", "values": [{"measurement": "collision cross section (N2)", "setting": "[2]; [M+H]+", "value": 181.7, "unit": "Å²"}]}, {"smiles": "CC(C)CC1C(=O)N2CCCC2C2(O)OC(NC(=O)C3C=C4c5cccc6[nH]cc(c56)CC4N(C)C3)(C(C)C)C(=O)N12", "note": "(stereo not drawn) [alpha-ERGOCRYPTINE]", "values": [{"measurement": "collision cross section (N2)", "setting": "[2]; [M+H]+", "value": 236.1, "unit": "Å²"}]}]}
